# In patent publication US9365572B2, “PI3K and/or mTOR inhibitor” (XUANZHU PHARMA CO., LTD., priority 2012, dated 2016):
# How the values were obtained:
# Glutamate, NMDA, Glycine = Glutamate, NMDA, Glycine (Rattus norvegicus (Rat), UniProt P35439); assay: Radioligand binding assay No. 232910; details: test substance 10 μM, read-out: Inhibitory rate (%), Glutamate, NMDA, Glycine
# Potassium Channel hERG = Potassium Channel hERG (Homo sapiens (Human), UniProt Q12809); assay: Radioligand binding assay No. 265900; details: test substance 10 μM, read-out: Inhibitory rate (%), Potassium Channel hERG
# Endothelin ETB = Endothelin ETB (Homo sapiens (Human), UniProt P24530); assay: Radioligand binding assay No. 224110; details: test substance 10 μM, read-out: Inhibitory rate (%), Endothelin ETB
# Muscarinic M3 = Muscarinic M3 (Homo sapiens (Human), UniProt P20309); assay: Radioligand binding assay No. 252810; details: test substance 10 μM, read-out: Inhibitory rate (%), Muscarinic M3
# Nicotinic Acetylcholine = assay: Radioligand binding assay No. 258590; details: test substance 10 μM; Human
# Purinergic P2Y = assay: Radioligand binding assay No. 268810; details: test substance 10 μM; rat
# Histamine H3 = Histamine H3 (Homo sapiens (Human), UniProt Q9Y5N1); assay: Radioligand binding assay No. 239820; details: test substance 10 μM, read-out: Inhibitory rate (%), Histamine H3
# [1] = biological target: Transporter, Dopamine (DAT) (Homo sapiens (Human), UniProt Q01959); assay: Radioligand binding assay No. 220320; details: test substance 10 μM, read-out: Inhibitory rate (%), Transporter, Dopamine (DAT)
# Adrenergic β1 = Adrenergic β1 (Homo sapiens (Human), UniProt P08588); assay: Radioligand binding assay No. 204010; details: test substance 10 μM, read-out: Inhibitory rate (%), Adrenergic β1
# [2] = biological target: Leukotriene, Cysteinyl CysLT1 (Homo sapiens (Human), UniProt Q9Y271); assay: Radioligand binding assay No. 250460; details: test substance 10 μM, read-out: Inhibitory rate (%), Leukotriene, Cysteinyl CysLT1
# [3] = biological target: Serotonin (5-Hydroxytryptamine) 5-HT2B (Homo sapiens (Human), UniProt P41595); assay: Radioligand binding assay No. 271700; details: test substance 10 μM, read-out: Inhibitory rate (%), Serotonin (5-Hydroxytryptamine) 5-HT2B
# Prostanoid EP4 = Prostanoid EP4 (Homo sapiens (Human), UniProt P35408); assay: Radioligand binding assay No. 268420; details: test substance 10 μM, read-out: Inhibitory rate (%), Prostanoid EP4
# Glutamate, Kainate = assay: Radioligand binding assay No. 232700; details: test substance 10 μM; rat
# [4] = tested on: Calcium Channel L-Type, Benzothiazepine; assay: Radioligand binding assay No. 214510; details: test substance 10 μM; rat
# PC-3 = assay: In vitro cytological inhibitory activity (XTT); assay type: cell-based; details: Homo sapiens, 72 hrs
# Protocol: PC-3: Human prostatic carcinoma cell line;
# (§1) 1. Preparation of agents and compounds:
# (§2) • 1.1 Preparation of phosphoric acid buffering solution (PBS): 8 g NaCl, 0.2 g KCl, 1.44 g Na2HPO4 and 0.24 g KH2PO4 were weighed and added to 800 mL ultrapure water. The mixture was adjusted to pH=7.4, and ultrapure water was added to the metered volume of IL. Then the autoclaving was conducted for 20 mins. • 1.2 Preparation of XTT detection working solution: 100 mg (2,3-Bis-(2-methoxy-4-nitro-5-sulfophenyl)-2H-tetrazolium-5-carboxanilide); 2,3-bis(2-methoxy-4-nitro-5-sulfophenyl)-5-[(phenylamino)carbonyl]-2H-tetrazolium hydroxide (XTT) powder was weighed, and dissolved under protection from light 300 mL of phenol red-free and serum-free RPMI1640 culture, which had been warmed up to 50° C. The resulting mixture was filtered, packaged and used immediately or in one week. The complete process was conducted under protection from light. • 1.3 Preparation of the test compound • Preparation of the stock solution of the test compound: The test compound powder was dissolved in DMSO in a concentration of 10 mM. • Preparation of the gradiently diluted solution of the test compound: 10 mM of the stock solution of the test compound was successively and gradiently diluted with DMSO by 4 folds for 10 concentrations. […]
# A549 = assay: In vitro cytological inhibitory activity (XTT); assay type: cell-based; details: Homo sapiens, 72 hrs
# Protocol: A549: Human lung cancer cell line;
# as §1, §2
# Chain of Prostanoid EP4 (P35408 whole entry): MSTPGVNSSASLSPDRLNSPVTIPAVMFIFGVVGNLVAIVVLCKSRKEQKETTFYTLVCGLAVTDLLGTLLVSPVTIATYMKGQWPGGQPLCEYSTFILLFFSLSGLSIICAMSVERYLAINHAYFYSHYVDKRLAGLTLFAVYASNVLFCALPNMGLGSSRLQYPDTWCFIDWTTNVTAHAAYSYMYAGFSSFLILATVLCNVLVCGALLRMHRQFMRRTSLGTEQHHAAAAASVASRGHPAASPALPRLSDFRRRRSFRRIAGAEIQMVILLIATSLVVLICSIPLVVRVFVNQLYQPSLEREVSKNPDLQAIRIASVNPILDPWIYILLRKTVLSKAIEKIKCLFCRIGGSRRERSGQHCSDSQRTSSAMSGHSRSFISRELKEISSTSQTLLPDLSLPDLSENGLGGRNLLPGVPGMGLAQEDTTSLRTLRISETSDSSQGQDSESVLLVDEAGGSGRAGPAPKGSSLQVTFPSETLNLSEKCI
# Chain of Serotonin (5-Hydroxytryptamine) 5-HT2B (P41595 whole entry): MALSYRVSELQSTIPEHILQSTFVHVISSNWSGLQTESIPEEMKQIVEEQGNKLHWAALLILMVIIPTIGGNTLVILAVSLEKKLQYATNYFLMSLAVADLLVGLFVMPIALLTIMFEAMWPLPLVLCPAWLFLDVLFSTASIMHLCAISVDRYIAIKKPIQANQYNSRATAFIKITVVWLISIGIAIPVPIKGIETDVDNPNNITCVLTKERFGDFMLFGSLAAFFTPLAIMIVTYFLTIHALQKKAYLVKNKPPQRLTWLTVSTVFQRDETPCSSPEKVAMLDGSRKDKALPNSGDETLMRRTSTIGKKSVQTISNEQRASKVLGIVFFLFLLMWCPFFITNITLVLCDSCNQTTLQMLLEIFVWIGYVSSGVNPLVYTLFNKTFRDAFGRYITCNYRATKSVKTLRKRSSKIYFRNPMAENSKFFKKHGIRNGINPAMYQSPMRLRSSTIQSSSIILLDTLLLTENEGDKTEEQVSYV
# Chain of Leukotriene, Cysteinyl CysLT1 (Q9Y271 whole entry): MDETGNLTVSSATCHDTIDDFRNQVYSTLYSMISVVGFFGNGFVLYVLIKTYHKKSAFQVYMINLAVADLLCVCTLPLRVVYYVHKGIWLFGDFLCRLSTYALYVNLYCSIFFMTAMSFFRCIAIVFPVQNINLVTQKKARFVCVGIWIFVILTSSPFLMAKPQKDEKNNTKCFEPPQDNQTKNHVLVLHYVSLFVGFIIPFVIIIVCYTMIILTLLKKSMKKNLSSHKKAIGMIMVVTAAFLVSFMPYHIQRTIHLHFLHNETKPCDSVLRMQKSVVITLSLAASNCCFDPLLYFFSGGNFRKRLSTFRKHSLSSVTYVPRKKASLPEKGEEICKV
# Chain of Transporter, Dopamine (DAT) (Q01959 whole entry): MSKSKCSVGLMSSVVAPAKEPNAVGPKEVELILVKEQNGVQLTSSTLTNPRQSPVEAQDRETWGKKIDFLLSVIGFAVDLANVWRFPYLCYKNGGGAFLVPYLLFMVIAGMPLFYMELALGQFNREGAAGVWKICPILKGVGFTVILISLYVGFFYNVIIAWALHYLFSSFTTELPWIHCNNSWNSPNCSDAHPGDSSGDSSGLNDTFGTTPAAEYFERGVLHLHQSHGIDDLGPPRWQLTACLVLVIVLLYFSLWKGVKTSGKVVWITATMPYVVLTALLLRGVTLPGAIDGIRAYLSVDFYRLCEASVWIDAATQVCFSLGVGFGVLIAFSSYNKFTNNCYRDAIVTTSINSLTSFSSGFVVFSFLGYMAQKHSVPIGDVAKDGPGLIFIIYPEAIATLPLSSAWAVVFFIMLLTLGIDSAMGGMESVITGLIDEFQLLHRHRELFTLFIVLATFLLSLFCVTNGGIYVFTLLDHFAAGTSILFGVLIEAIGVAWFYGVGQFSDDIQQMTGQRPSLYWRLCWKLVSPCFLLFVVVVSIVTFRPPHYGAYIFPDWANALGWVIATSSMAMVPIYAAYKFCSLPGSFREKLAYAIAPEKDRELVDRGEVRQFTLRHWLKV
# Chain of Endothelin ETB (P24530 27-442): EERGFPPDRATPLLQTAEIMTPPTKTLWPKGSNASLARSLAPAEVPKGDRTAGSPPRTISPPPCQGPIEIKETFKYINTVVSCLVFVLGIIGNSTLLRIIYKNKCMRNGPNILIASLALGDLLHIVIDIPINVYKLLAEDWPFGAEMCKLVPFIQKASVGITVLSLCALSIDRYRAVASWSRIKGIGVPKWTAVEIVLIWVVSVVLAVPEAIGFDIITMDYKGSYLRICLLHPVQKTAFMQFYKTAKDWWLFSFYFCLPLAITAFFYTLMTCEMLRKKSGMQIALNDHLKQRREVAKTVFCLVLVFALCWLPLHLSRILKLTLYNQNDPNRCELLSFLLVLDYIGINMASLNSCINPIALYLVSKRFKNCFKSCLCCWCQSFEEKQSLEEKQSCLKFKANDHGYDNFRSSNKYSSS
# Chain of Adrenergic β1 (P08588 whole entry): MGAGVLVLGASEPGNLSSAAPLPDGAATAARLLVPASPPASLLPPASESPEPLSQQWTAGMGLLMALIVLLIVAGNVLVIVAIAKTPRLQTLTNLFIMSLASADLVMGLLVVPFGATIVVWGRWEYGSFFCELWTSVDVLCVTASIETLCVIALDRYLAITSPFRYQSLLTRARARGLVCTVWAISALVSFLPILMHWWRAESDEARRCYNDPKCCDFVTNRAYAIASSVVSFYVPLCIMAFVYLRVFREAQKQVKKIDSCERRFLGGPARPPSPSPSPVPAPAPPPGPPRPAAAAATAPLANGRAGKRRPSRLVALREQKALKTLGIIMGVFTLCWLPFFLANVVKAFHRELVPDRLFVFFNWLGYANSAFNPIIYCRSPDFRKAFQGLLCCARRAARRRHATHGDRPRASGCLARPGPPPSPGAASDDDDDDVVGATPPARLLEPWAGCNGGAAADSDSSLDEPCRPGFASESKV
# Chain of Muscarinic M3 (P20309 whole entry): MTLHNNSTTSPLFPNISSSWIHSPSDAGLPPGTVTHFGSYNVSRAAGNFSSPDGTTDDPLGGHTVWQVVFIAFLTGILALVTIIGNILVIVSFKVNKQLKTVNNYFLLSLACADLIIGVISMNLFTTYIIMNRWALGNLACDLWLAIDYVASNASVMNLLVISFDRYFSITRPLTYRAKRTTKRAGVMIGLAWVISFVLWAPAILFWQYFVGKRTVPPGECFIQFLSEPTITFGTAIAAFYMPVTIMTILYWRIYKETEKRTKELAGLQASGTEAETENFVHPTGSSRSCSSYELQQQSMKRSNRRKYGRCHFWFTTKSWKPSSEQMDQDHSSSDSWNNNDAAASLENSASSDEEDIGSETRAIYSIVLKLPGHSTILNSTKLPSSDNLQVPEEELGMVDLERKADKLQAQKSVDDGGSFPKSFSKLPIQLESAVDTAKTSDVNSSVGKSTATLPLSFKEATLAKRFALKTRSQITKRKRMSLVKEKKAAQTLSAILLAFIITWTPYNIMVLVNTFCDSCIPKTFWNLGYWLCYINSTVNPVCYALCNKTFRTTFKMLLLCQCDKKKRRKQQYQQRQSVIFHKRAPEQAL
# Chain of Potassium Channel hERG (Q12809 whole entry): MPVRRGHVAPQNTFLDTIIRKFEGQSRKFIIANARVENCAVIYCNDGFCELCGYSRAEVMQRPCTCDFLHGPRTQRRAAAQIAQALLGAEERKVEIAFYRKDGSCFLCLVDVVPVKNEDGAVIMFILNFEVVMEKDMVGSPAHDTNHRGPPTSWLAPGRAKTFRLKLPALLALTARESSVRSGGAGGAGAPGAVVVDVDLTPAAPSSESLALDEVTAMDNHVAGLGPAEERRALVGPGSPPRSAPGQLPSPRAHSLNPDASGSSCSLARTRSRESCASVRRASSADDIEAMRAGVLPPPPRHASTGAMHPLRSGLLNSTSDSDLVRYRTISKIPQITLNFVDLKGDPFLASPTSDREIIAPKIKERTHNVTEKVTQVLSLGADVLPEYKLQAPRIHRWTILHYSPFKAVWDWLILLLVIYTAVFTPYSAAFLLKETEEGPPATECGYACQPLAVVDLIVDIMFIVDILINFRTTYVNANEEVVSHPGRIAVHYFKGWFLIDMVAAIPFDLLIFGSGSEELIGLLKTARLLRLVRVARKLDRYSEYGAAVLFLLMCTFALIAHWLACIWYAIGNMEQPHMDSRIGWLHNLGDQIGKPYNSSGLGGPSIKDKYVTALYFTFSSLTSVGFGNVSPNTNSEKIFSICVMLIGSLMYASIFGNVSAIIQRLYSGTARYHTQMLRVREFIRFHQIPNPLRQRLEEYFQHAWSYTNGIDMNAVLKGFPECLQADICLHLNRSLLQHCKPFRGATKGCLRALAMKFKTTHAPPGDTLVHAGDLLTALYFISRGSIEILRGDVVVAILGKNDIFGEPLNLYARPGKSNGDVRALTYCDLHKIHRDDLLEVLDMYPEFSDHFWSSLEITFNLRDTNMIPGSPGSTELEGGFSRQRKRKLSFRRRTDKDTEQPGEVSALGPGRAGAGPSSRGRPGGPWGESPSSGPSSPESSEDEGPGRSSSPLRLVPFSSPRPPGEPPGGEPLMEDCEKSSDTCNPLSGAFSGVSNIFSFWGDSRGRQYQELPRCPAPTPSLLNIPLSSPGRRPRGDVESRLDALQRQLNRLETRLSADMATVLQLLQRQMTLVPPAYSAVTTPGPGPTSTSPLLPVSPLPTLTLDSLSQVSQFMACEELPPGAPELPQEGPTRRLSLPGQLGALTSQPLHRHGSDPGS
# Chain of Histamine H3 (Q9Y5N1 whole entry): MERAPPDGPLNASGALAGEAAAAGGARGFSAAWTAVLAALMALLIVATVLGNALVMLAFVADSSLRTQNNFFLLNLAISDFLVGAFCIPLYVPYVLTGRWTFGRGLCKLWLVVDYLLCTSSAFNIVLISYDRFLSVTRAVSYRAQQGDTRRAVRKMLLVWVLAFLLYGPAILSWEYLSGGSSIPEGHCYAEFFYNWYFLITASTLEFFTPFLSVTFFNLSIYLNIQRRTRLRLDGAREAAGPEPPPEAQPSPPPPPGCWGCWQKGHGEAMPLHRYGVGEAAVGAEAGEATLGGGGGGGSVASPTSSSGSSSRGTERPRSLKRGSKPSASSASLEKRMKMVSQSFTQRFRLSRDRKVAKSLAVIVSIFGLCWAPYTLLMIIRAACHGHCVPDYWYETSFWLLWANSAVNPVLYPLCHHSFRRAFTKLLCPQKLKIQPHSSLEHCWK
IC50 (PC-3) [nM],IC50 (A549) [nM],Compound,"inhibition at 10 µM (Glutamate, NMDA, Glycine) [%]",inhibition at 10 µM (Potassium Channel hERG) [%],inhibition at 10 µM (Endothelin ETB) [%],inhibition at 10 µM (Muscarinic M3) [%],"Inhibitory rate (%), Nicotinic Acetylcholine (Nicotinic Acetylcholine) [%]","Inhibitory rate (%), Purinergic P2Y (Purinergic P2Y) [%]",inhibition at 10 µM (Histamine H3) [%],inhibition at 10 µM [1] [%],inhibition at 10 µM (Adrenergic β1) [%],inhibition at 10 µM [2] [%],inhibition at 10 µM [3] [%],inhibition at 10 µM (Prostanoid EP4) [%],"Inhibitory rate (%), Glutamate, Kainate (Glutamate, Kainate) [%]","Inhibitory rate (%), Calcium Channel L-Type, Benzothiazepine [4] [%]"
–,–,"Nc1ccc(-c2ccc3ncc4c(=O)[nH]c(=O)n(-c5cccc(C(F)(F)F)c5)c4c3n2)cn1 [Compound 5, 9-(6-aminopyridin-3-yl)-1-(3-(trifluoromethyl)phenyl)pyrimido[5,4-c][1,5]naphthyridine-2,4(1H,3H)-dione]",29,2,7,13,7,9,16,1,0,-1,13,19,35,15
25.6,107,"O=c1[nH]c(=O)n(-c2cccc(C(F)(F)F)c2)c2c1cnc1ccc(-c3cnc4[nH]ccc4c3)nc12 [Compound 30, 9-(1H-pyrrolo[2,3-b]pyridin-5-yl)-1-(3-(trifluoromethyl)phenyl)pyrimido[5,4-c][1,5]naphthyridine-2,4(1H,3H)-dione]",–,–,–,–,–,–,–,–,–,–,–,–,–,–
